One substance from US6328728A, “Composition and method for enhancing electrotransport agent delivery” (Alza Corporation, priority 1997, dated 2001) can be followed below.

This data set is classed as in vivo, male hairless guinea pigs. As to conditions: for average plasma calcitonin concentration (given in flux units): second hour/steady state. As to the method: This study was undertaken to assess the effect on the transdermal delivery rate by electrotransport of an agent such as calcitonin (sCT), a protein with an affinity for the surfactant Tween 20 at pH 6.5, by delivering the agent in the presence of Tween 20 from a donor gel.
A customized electrotransport system, and its reservoir matrices and contents were prepared as described below. A low level current of 100 μA cm^-2 was maintained throughout each test by a self contained power module (ALZA Corp., Palo Alto, Calif., Code #84166). The peptide agent salmon calcitonin (sCT, UCB-Bioproducts S.A., Chemin du Foriest, Allend, Belgium) was chosen for delivery by electrotransport. The protein calcitonin has a positive net charge at pH 6.5 and was therefore anodically driven from the positive electrode toward the negative electrode. Three gels were prepared for use with the electrotransport system. The anode gel provided the proper environment for the anodic electrochemical reaction. It was comprised of Bio-Rad resin beads (100-200 mesh, chloride form, Bio-Rad Laboratories, Richmond, Calif.) in 48 mM histidine buffer, pH 6.5, and 0.5% hydroxyethyl cellulose (HEC). The cathode gel provided the proper environment for the cathodic electrochemical reaction and completed the electrical circuit. It was comprised of an L-histidine buffered HEC gel, pH 2.9, and sodium chloride. The donor gel occupied a surface area of 2 cm^2 and was separated from the anode compartment by a 1 Kdalton molecular weight (MW) cut-off membrane (Millipore Corp., Bedford, Mass.). The donor gel was prepared by first mixing 48 mM histidine buffer, pH 6.5, with HEC, vortexing vigorously to completely dissolve the HEC and to ensure homogeneous polymerization of the gel. After a few minutes, either a 10% solution of Tween 20 (Pierce, Rockford, Ill.) or water was added in conjunction with a stock solution of calcitonin and gently mixed into the gel. The amounts of each component were calculated to produce a nominal concentration of 1 mM sCT in a 1% HEC gel of 1 mL volume (with or without Tween 20). The gel was slowly rotated and allowed to equilibrate overnight at 4° C. An aliquot of 275-295 μL of donor gel was weighed and placed in the donor reservoir of the electrotransport system immediately prior to beginning each experiment. The 3 gels were contained in 2 separate structures, with each gel compartment being a punched double-sided adhesive foam ring 0.081 cm (0.032") thick with an outside diameter of 3.2 cm (11/4") and an inside diameter of 1.6 cm (5/8"). The compartment ring containing the cathode gel was open on the skin side. The back side was covered by an electrode sandwich consisting of a 3.2 cm (11/4") diameter release liner cover, a 2.2 cm (13/15") diameter punch of electrical conducting adhesive tape, a 11 cm (41/2") silver wire that was slightly coiled at one end, with the coil placed at the center of the electrode leading out, and a 1.6 cm (5/8") diameter punch of AgCl PIB electrode film. The donor gel compartment was also open on the skin side, but the back side was covered by a 2.2 cm (13/15") diameter punch of a 1,000 Dalton MW cut-off membrane. The anode compartment was then stacked on top of the donor compartment and covered with an electrode sandwich identical to the cathode, except that the AgCl PIB electrode film was replaced with a 0.025 mm thick silver (Ag) foil (Johnson Mathey Catalog Co., Ward Hill, Mass.). Both the cathode and the donor compartments also included adhesive washers (In Vivo Metric, Healdsberg, Calif.) with an outside diameter of 3.2 cm (11/4") and an inside diameter of 1.6 cm (5/8") between the skin and the bottom of the compartment to improve skin adhesion. All components of the system were punched out in advance and assembled on the day of the experiment. […]

Where two headings read alike, the source gives them in different places.

Consider Salmon Calcitonin [reference compound], for which the “time to approach steady state calcitonin levels” value (active current groups (1) and (2)) is given as “By the second hour”. For the same substance, the “average plasma calcitonin concentration (given in flux units)” value (active electrotransport 100 μA cm^-2, 1 mM sCT gel pH 6.5, with Tween 20 (group 1)) worked out at 5.4 μg sCT cm^-2 h^-1 and the “average plasma calcitonin concentration (given in flux units)” value (active electrotransport 100 μA cm^-2, 1 mM sCT gel pH 6.5, without Tween 20 (group 2)) amounted to 1.2 μg sCT cm^-2 h^-1. Besides, where the note is “active electrotransport groups (1) and (2), first hour”, the “calcitonin plasma concentration, time course” value is “increased rapidly”. Also, for the setting “active electrotransport, group 1 vs. group 2, second hour”, the “average plasma calcitonin concentration with Tween 20 relative to without Tween 20” value was 3 fold. For the same substance, the “calcitonin plasma profiles, group (1) with Tween 20 vs group (2) without (statistical comparison)” value (active electrotransport, p<0.05, ANOVA) was “significantly different from one another”. Besides, the “calcitonin plasma levels, passive systems” value is, setting by setting: (passive delivery (control group 3, with and without Tween 20), first 4 hrs.) “continued to lack significant calcitonin plasma levels”; (passive delivery (no current), first hour) “low and remained at or slightly above the limit of detection”.
